Measurements reported in patent publication US9708293B2, “N-(pyridin-2-yl)pyrimidin-4-amine derivatives containing a sulfone group” (BAYER PHARMA AKTIENGESELLSCHAFT, priority 2012, dated 2017).

Tests used:
[1] = target: T1, CDK2/CycE (Homo sapiens, UniProt P24941); experiment: CDK2/CycE kinase assay (Method 2a); type: biochemical; details: 10 μM ATP
T1 construct: GST; purchased ProQinase GmbH (Freiburg, Germany); host or cells: insect cells (Sf9)
Excerpt: 2a. CDK2/CycE Kinase Assay:
CDK2/CycE-inhibitory activity of compounds of the present invention was quantified employing the CDK2/CycE TR-FRET assay as described in the following paragraphs:
Recombinant fusion proteins of GST and human CDK2 and of GST and human CycE, expressed in insect cells (Sf9) and purified by Glutathion-Sepharose affinity chromatography, were purchased from ProQinase GmbH (Freiburg, Germany). As substrate for the kinase reaction biotinylated peptide biotin-Ttds-YISPLKSPYKISEG (C-terminus in amid form) was used which can be purchased e.g. form the company JERINI Peptide Technologies (Berlin, Germany).
For the assay 50 nl of a 100 fold concentrated solution of the test compound in DMSO was pipetted into a black low volume 384 well microtiter plate (Greiner Bio-One, Frickenhausen, Germany), 2 μl of a solution of CDK2/CycE in aqueous assay buffer [50 mM Tris/HCl pH 8.0, 10 mM MgCl2, 1.0 mM dithiothreitol, 0.1 mM sodium ortho-vanadate, 0.01% (v/v) Nonidet-P40 (Sigma)] were added and the mixture was incubated for 15 min at 22° C. to allow pre-binding of the test compounds to the enzyme before the start of the kinase reaction. Then the kinase reaction was started by the addition of 3 μl of a solution of adenosine-tri-phosphate (ATP, 16.7 μM=>final conc. in the 5 μl assay volume is 10 μM) and substrate (1.25 μM=>final conc. in the 5 μl assay volume is 0.75 μM) in assay buffer and the resulting mixture was incubated for a reaction time of 25 min at 22° C. The concentration of CDK2/CycE was adjusted depending of the activity of the enzyme lot and was chosen appropriate to have the assay in the linear range, typical concentrations were in the range of 130 ng/mL. The reaction was stopped by the addition of 5 μl of a solution of TR-FRET detection reagents (0.2 μM streptavidine-XL665 [Cisbio Bioassays, Codolet, France] and 1 nM anti-RB(pSer807/pSer811)-antibody from BD Pharmingen [#558389] and 1.2 nM LANCE EU-W1024 labeled anti-mouse IgG antibody [Perkin-Elmer, product no. AD0077]) in an aqueous EDTA-solution (100 mM EDTA, 0.2% (w/v) bovine serum albumin in 100 mM HEPES/NaOH pH 7.0).
(§1) The resulting mixture was incubated 1 h at 22° C. to allow the formation of complex between the phosphorylated biotinylated peptide and the detection reagents. Subsequently the amount of phosphorylated substrate was evaluated by measurement of the resonance energy transfer from the Eu-chelate to the streptavidine-XL. Therefore, the fluorescence emissions at 620 nm and 665 nm after excitation at 350 nm was measured in a TR-FRET reader, e.g. a Rubystar (BMG Labtechnologies, Offenburg, Germany) or a Viewlux (Perkin-Elmer). The ratio of the emissions at 665 nm and at 622 nm was taken as the measure for the amount of phosphorylated substrate. […]

[2] = target: T2, CDK9/CycT1 (Homo sapiens, UniProt P50750); experiment: CDK9/CycT1 kinase assay (Method 1a); type: biochemical; details: 10 μM ATP
T2 construct: Recombinant full-length His-tagged human CDK9 and CycT1; His; purchased Invitrogen PV4131; host or cells: insect cells
Excerpt: 1a. CDK9/CycT1 Kinase Assay:
CDK9/CycT1—inhibitory activity of compounds of the present invention was quantified employing the CDK9/CycT1 TR-FRET assay as described in the following paragraphs:
Recombinant full-length His-tagged human CDK9 and CycT1, expressed in insect cells and purified by Ni-NTA affinity chromatography, were purchased from Invitrogen (Cat. No PV4131). As substrate for the kinase reaction biotinylated peptide biotin-Ttds-YISPLKSPYKISEG (C-terminus in amid form) was used which can be purchased e.g. form the company JERINI Peptide Technologies (Berlin, Germany). For the assay 50 nl of a 100 fold concentrated solution of the test compound in DMSO was pipetted into a black low volume 384 well microtiter plate (Greiner Bio-One, Frickenhausen, Germany), 2 μl of a solution of CDK9/CycT1 in aqueous assay buffer [50 mM Tris/HCl pH 8.0, 10 mM MgCl2, 1.0 mM dithiothreitol, 0.1 mM sodium ortho-vanadate, 0.01% (v/v) Nonidet-P40 (Sigma)] were added and the mixture was incubated for 15 min at 22° C. to allow pre-binding of the test compounds to the enzyme before the start of the kinase reaction. Then the kinase reaction was started by the addition of 3 μl of a solution of adenosine-tri-phosphate (ATP, 16.7 μM=>final conc. in the 5 μl assay volume is 10 μM) and substrate (1.67 μM=>final conc. in the 5 μl assay volume is 1 μM) in assay buffer and the resulting mixture was incubated for a reaction time of 25 min at 22° C. […]
as §1, with “HTRF” for “TR-FRET”, “(Perkin-Elmer).” for “(Perkin-Elmer). The ratio of the emissions at 665 nm and at 622 nm was taken as the measure for the amount of phosphorylated substrate.”

T2 sequence (P50750 whole entry): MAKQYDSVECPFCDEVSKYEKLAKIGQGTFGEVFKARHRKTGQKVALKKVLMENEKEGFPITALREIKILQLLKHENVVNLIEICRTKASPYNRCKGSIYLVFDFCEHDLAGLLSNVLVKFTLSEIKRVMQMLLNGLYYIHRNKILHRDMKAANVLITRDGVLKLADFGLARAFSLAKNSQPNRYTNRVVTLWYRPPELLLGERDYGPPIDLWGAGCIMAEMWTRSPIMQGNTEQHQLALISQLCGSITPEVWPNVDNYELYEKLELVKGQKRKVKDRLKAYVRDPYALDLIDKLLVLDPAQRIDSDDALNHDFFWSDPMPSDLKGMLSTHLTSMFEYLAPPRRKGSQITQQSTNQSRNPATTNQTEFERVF
T2 sequence (O60563 whole entry partner): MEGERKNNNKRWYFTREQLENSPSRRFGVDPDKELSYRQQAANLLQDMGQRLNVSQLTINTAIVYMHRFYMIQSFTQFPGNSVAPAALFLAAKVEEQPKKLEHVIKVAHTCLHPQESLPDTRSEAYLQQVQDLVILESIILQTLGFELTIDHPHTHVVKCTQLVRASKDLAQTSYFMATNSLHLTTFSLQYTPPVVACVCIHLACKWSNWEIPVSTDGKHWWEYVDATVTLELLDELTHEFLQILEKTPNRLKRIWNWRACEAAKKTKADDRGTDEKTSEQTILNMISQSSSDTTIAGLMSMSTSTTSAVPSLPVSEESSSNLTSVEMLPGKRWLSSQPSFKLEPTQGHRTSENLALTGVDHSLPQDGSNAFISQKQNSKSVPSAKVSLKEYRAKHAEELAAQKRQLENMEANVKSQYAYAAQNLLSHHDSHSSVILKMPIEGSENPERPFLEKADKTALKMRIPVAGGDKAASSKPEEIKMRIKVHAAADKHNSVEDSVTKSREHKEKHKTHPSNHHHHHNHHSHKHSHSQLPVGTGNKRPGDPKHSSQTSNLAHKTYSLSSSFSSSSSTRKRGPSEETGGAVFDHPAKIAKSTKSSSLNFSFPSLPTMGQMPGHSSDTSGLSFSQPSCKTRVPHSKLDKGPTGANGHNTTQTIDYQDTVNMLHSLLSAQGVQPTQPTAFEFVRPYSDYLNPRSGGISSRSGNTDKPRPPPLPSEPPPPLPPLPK

Compound COc1cc(F)ccc1-c1cc(Nc2cc(CS(C)(=O)=O)ccn2)ncn1 [Example 1, 6-(4-Fluoro-2-methoxyphenyl)-N-{4-[(methylsulfonyl)methyl]pyridin-2-yl}pyrimidin-4-amine] has an IC50 [1] of 280 nM and an IC50 [2] of 3 nM.

In the case of COc1cc(F)ccc1-c1cc(Nc2cc(CS(C)(=O)=O)cc(F)n2)ncn1 [Example 4, 6-(4-Fluoro-2-methoxyphenyl)-N-{6-fluoro-4-[(methylsulfonyl)methyl]pyridin-2-yl}pyrimidin-4-amine], the IC50 [1] is reported as 92 nM and the IC50 [2] is reported as 3 nM.

COc1cc(F)ccc1-c1cc(Nc2cc(CS(C)(=O)=O)cc(C(F)(F)F)n2)ncn1 [Example 3, 6-(4-Fluoro-2-methoxyphenyl)-N-{4-[(methylsulfonyl)methyl]-6-(trifluoromethyl)pyridin-2-yl}pyrimidin-4-amine] gave an IC50 [1] of 73 nM and an IC50 [2] of 4 nM.

COc1cc(F)ccc1-c1cc(Nc2cc(CS(C)(=O)=O)cc(C)n2)ncn1 [Example 2, 6-(4-Fluoro-2-methoxyphenyl)-N-{6-methyl-4-[(methylsulfonyl)methyl]pyridin-2-yl}pyrimidin-4-amine] gave an IC50 [1] of 90 nM.
